# In patent US8580579B2, “Hydrophilic and lipophilic rhodamines for labelling and imaging” (Max-Planck-Gesellschaft zur Foerderung der Wissenschaften …, priority 2009, dated 2013):
# “Also recorded” adds a separate entry of the source.
# Legend:
# [1] = UV-visible absorption and fluorescence spectra of the dyes of the invention; type: physicochemical
# Protocol: UV-visible absorption spectra were recorded on a Varian Cary 4000 UV-Vis spectrophotometer, and fluorescence spectra on a Varian Cary Eclipse fluorescence spectrophotometer. Reactions were carried out upon magnetic stirring in Schlenk flasks equipped with septa or reflux condensers with bubble-counters under argon using a standard manifold with vacuum and argon lines. All NMR spectra are referenced to tetramethylsilane as an internal standard (δ=0 ppm) using the signals of the residual protons of CHCl3 (7.26 ppm) in CDCl3, CHD2OD (3.31 ppm) in CD3OD, HOD (4.75 ppm) in D2O, [D5]acetone (2.04 ppm) in [D6]acetone or [D5]DMSO (2.50 ppm) in [D6]DMSO. Multiplicities of signals are described as follows: s=singlet, br. s=broad singlet, d=doublet, t=triplet, q=quartet, quint=quintet, m=multiplet, mc=centrosymmetrical multiplet. Coupling constants (J) are given in Hz. Multiplicities in the ^13C NMR spectra were determined by APT (Attached Proton Test) measurements. Low resolution mass spectra (electro spray ionization, ESI) were obtained with LCQ and ESI-TOF mass-spectrometers (MICROTOF (focus), Fa. Bruker). The MICROTOF spectrometer equipped with ESI ion source Apollo and direct injector with LC autosampler Agilent RR 1200 was used for obtaining high resolution mass spectra (ESI-HRMS). ESI-HRMS were obtained also on APEX IV spectrometer (Bruker). HPLC system (Knauer): Smartline pump 1000 (2×), UV detector 2500, column thermostat 4000 (25° C.), mixing chamber, injection valve with 20 and 100 μL loop for the analytical and preparative columns, respectively; 6-port-3-channel switching valve; analytical column: Eurospher-100 C18, 5 μm, 250×4 mm, 1.1 mL/min; preparative column: Eurospher-100-5 C18, 5 μm, 250×8 mm, 3.7 mL/min; solvent A: water+0.1% v/v trifluoroacetic acid (TFA); solvent B: MeCN+0.1% v/v TFA; detection at 636 nm (if not stated otherwise). Normal phase analytical TLC was performed on MERCK ready-to-use plates with silica gel 60 (F254) and reversed phase TLC—on RP-18W/UV254 precoated TLC plates (Macherey-Nagel). Preparative TLC was performed on MERCK HPTLC silica gel 60 plates (10×10 cm, layer thickness 0.2 mm). Column chromatography: MERCK silica gel, grade 60, 0.04-0.063 mm or Polygoprep 60-50 C18 (Macherey-Nagel).
# [2] = Fluorescence quantum yield, Atto 633 as reference; type: physicochemical; conditions: Atto 633 as reference (Φfl = 64% in aqueous buffer)
# Excerpt: Moreover, intersystem crossing rates (kISC) and rates of the T1→S0 transitions were also found to be the same for both deuterated and undeuterated substances (see ref. to Table 2).
# [3] = Excited state lifetime and FCS study under single molecule conditions; type: physicochemical
# [4] = Conjugation with antibodies: labelling degree and quantum yield of conjugates; type: physicochemical
# Excerpt: The degree of labelling achieved with antibodies may strongly vary; typically, compounds 6/6D (taken as their NHS esters 9/9D) attached to the anti-rabbit and anti-mouse antibodies produced a labelling degree from 2.5 up to 6. […] Decrease in fluorescence quantum yields after conjugation with antibodies is normal and well documented [cf.: V. P. Boyarskiy, V. N. Below, R. Medda, B. Hein, M. Bossi, S. W. Hell, Chem. Eur. J. 2008, 14, 1784-1792].
# [5] = Bleaching measurements by pump-probe cycles; type: physicochemical; conditions: 50 pump-probe cycles, pump intensity 18 kW/cm^2, 633 nm CW, 10 ms pulses, air-oxygen
# Protocol: The degree of photodecomposition was evaluated by measuring the decrease in the fluorescence intensity of compound 6 (FIG. 5). […] The pulse duration was 10 ms, and the pulse power 18.3 kW/cm^2 (633 nm CW laser light). Photostability of compound 6 is strong: 50 pump-probe cycles with a pump intensity of 18 kW/cm^2 only bleach 25% of the ensemble allowing for a high number of single-molecule returns, i.e. a high number of single-molecule localizations and thus a final image with high contrast.
# [6] = Ground state depletion studies (pump-probe mode); type: physicochemical
# Excerpt: The compound 6 is excellent for super-resolution far-field microscopy based on ground-state depletion, such as GSDIM (ground-state depletion followed by individual molecule return; J. Fölling et. al, Nature Meth. 2008, 5, 943-945). Here, “off” and “on” switching of the fluorescence is achieved by transiently shelving the fluorophore into a metastable dark state. Upon the return of only a few isolated single molecules to the fluorescent singlet state, positions of these single light emitting spots can be imaged on a camera and localized with high precision. Upon repeating this procedure and acquiring many pictures, a super-resolution image can be reconstructed from the localized positions. A prerequisite of this method is that >90% of the ensemble of the applied fluorescent dye can be shelved into a dark state at a time (to ensure the detection of isolated fluorescent spots at a time in a densely labeled sample) and that the fluorophore is bright enough, i.e., that it emits enough photons while being in the singlet on-state (to ensure high precision of localization). […] Switching off of the laser leads to a recovery of the fluorescence ensemble within a characteristic recovery time of 50 ms (FIG. 7), indicating the shelving into a metastable dark state. The measurements of FIGS. 6 and 7 were performed in a pump-probe mode, i.e., the residual level of fluorescence was probed with I=100 W/cm^2 for 0.5 ms after strong irradiation for 10 ms with the given laser intensity. Further on, recovery of the fluorescence can be accelerated by addition of UV light, which leads to an optically-induced de-population of the dark states. Already 2 kW/cm^2 of 375 nm light recovers 60% of the fluorescence within an irradiation period of 1 ms (FIG. 8). This is important in cases of samples of low label density where the addition of UV light and thus acceleration of dark state return helps to accelerate image acquisition.
# [7] = Chemical and storage stability of dyes and reactive derivatives; type: physicochemical
# physchem = conditions: water
# [8] = Solubility and polarity of the dyes
structure (smiles),measurement,setting,value
CN(CCC(=O)O)C(=O)c1c(F)c(F)c(F)c(F)c1C1=c2cc3c4c(c2Oc2c1cc1c5c2CCCN5C(C)(C)C=C1CS(=O)(=O)O)CCC[N+]=4C(C)(C)C=C3CS(=O)(=O)[O-] [Compound 6],Stokes shift,[1]; dyes of the invention,23 nm
same,ε · 10^−5,[1]; solvent H2O,0.94 M^−1 cm^−1
same,λmax (abs.),[1]; solvent H2O,637 nm
same,λmax (fl.),[1]; solvent H2O,660 nm
same,Φfl in water,[2],80%
same,τfl (excited state lifetime),[3],3.57^20 ns
same,fluorescence quantum yield of the conjugate,[4]; conjugate with goat anti-rabbit antibodies,40%
same,fluorescence quantum yield of the conjugate,[4]; conjugate with sheep anti-mouse antibodies,48%
same,fraction of the ensemble bleached,[5],25%
same,fluorescence recovered by UV light,"[6]; 2 kW/cm^2 of 375 nm light, irradiation period 1 ms",60%
same,extent of ground state depletion,"[6]; 633 nm laser pulses, ca. 12 kW/cm^2",97±3%
same,fluorophores switched off at a time,"[6]; I>10 kW/cm^2 CW 633 nm, poly(vinyl alcohol) matrix",97%
same,stability in methanol or methanol-containing solutions,[7],formed the corresponding methyl ester; also recorded: rapid esterification of the β-alanine fragment with methanol
same,solubility,physchem,> 100 mM
same,polarity,[8],polar; also recorded: hydrophilic
same,solubility in organic solvents,[8],"insoluble in diethyl ether, aliphatic, chlorinated, and aromatic hydrocarbons"
same,solubility in water or aqueous buffers,[8],soluble in water; also recorded: soluble in water or aqueous buffers
same,solubility in water,[8]; room temperature,40-45 mg in 1 mL
